From patent publication EP4775568A1, “NOVEL COMPOUND AND USE THEREOF FOR TREATING PSORIASIS” (Gwangju Institute of Science and Technology, priority 2023, dated 2025)

Molecular target: T1, CMKLR1 (Homo sapiens, UniProt Q99788)
T1 construct: expressed in transfected cells; host or cells: CHO-K1 cells expressing Gα-16 (CHO-Ga16-CMKLR1)
T1 sequence (Q99788 1-373): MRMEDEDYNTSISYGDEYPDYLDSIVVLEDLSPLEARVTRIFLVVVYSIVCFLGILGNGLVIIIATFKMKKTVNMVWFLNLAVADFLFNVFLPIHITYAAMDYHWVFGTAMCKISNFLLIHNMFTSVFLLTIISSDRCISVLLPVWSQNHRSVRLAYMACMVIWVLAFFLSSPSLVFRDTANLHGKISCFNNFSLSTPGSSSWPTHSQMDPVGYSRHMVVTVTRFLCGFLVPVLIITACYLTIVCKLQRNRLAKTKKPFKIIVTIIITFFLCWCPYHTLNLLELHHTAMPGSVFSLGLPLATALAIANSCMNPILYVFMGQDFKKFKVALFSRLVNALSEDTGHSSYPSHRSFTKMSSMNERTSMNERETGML
Assay: Calcium mobilization assay (CHO-Ga16-CMKLR1 cells, chemerin-9 induced signal)
Type: cell-based
Settings: Table 2, IC50 class, calcium signal induced by 2.5 nM chemerin-9
Procedure: To establish a CMKLR1 calcium mobilization cell evaluation system, CHO-K1 cells expressing Gα-16 were transfected with pcDNA3.1-derived human CMKLR1-expressing plasmids using Lipofectamine 2000 (Invitrogen, Waltham, Massachusetts, USA). […] The established cell line (CHO-Ga16-CMKLR1) was cultured in F-12 medium (Invitrogen) supplemented with 10% (v/v) fetal bovine serum (FBS; Invitrogen), 0.5 mg/mL geneticin, 0.2 mg/mL hygromycin B (Clontech), and 1% (v/v) antibiotic-antimycotic solution (Invitrogen) under 5% CO2 at 37°C.
100 µL/well was added to a 96-well plate (Corning) and incubated for 24 h. The buffer solution was prepared by adding 1 M HEPES solution to Hanks' Balanced Salt Solution (HBSS) (Invitrogen) and adjusting the pH to 7.4 by dropwise addition of 1 M NaOH.
The fluorescent dye solution was prepared using the buffer provided with the Calcium 5 Assay Kit (Molecular Devices). 40 µL/well of dye solution was added to each well and incubated at 37°C in a 5% CO2 atmosphere for 30 min. […] The final DMSO concentration was adjusted to 2%. 40 µL of each compound solution was added to the well and incubated for 30 min. […] Prism 5 software (GraphPad) was then used to obtain IC50 values for various compounds. IC50 values were derived based on concentration-response curves, and all experiments were repeated at least three times.

IC50 | Compound
> 1000 nM | Cc1ccc(-c2nn(C3CCCC3)c3cc(COc4ccc(C(C)CC(=O)O)cc4)ccc23)cc1 (stereo not drawn) [Compound 11, 3-(4-((1-cyclopentyl-3-(p-tolyl)-1H-indazol-6-yl)methoxy)phenyl)butanoic acid]
> 1000 nM | CC(CC(=O)O)c1ccc(OCc2ccc3c(-c4cccc(O)c4)nn(C4CCCC4)c3c2)cc1 (stereo not drawn) [Compound 14, 3-(4-((1-cyclopentyl-3-(3-hydroxyphenyl)-1H-indazol-6-yl)methoxy)phenyl)butanoic acid]
> 1000 nM | COc1ccc(-c2nn(C3CCCC3)c3cc(COc4ccc(C(C)CC(=O)O)cc4)ccc23)cc1 (stereo not drawn) [Compound 15, 3-(4-((1-cyclopentyl-3-(4-methoxyphenyl)-1H-indazol-6-yl)methoxy)phenyl)butanoic acid]
> 1000 nM | CC(CC(=O)O)c1ccc(OCc2ccc3c(-c4ccc(Cl)cc4)nn(C4CCCC4)c3c2)cc1 (stereo not drawn) [Compound 18, 3-(4-((3-(4-chlorophenyl)-1-cyclopentyl-1H-indazol-6-yl)methoxy)phenyl)butanoic acid]
100 to 1000 nM | CC(CC(=O)O)c1ccc(OCc2ccc3c(-c4cc(Cl)c(O)c(Cl)c4)nn(C4CCCC4)c3c2)cc1 (stereo not drawn) [Compound 20, 3-(4-((1-cyclopentyl-3-(3,5-dichloro-4-hydroxyphenyl)-1H-indazol-6-yl)methoxy)phenyl)butanoic acid]
> 1000 nM | CC(CC(=O)O)c1ccc(OCc2ccc3c(-c4cc(C(F)(F)F)cc(C(F)(F)F)c4)nn(C4CCCC4)c3c2)cc1 (stereo not drawn) [Compound 22, 3-(4-((3-(3,5-bis(trifluoromethyl)phenyl)-1-cyclopentyl-1H-indazol-6-yl)methoxy)phenyl)butanoic acid]
> 1000 nM | CC(CC(=O)O)c1ccc(OCc2ccc3c(-c4ccncc4)nn(C4CCCC4)c3c2)cc1 (stereo not drawn) [Compound 23, 3-(4-((1-cyclopentyl-3-(pyridin-4-yl)-1H-indazol-6-yl)methoxy)phenyl)butanoic acid]
> 1000 nM | CC(CC(=O)O)c1ccc(OCc2ccc3c(-c4ccc(-c5ccccc5)cc4)nn(C4CCCC4)c3c2)cc1 (stereo not drawn) [Compound 24, 3-(4-((3-([1,1'-biphenyl]-4-yl)-1-cyclopentyl-1H-indazol-6-yl)methoxy)phenyl)butanoic acid]
> 1000 nM | CC(CC(=O)O)c1ccc(OCc2ccc3c(-c4cc5ccccc5s4)nn(C4CCCC4)c3c2)cc1 (stereo not drawn) [Compound 25, 3-(4-((3-(benzo[b]thiophen-2-yl)-1-cyclopentyl-1H-indazol-6-yl)methoxy)phenyl)butanoic acid]
> 1000 nM | CC(CC(=O)O)c1ccc(OCc2ccc3c(-c4cccc5ccccc45)nn(C4CCCC4)c3c2)cc1 (stereo not drawn) [Compound 26, 3-(4-((1-cyclopentyl-3-(naphthalen-1-yl)-1H-indazol-6-yl)methoxy)phenyl)butanoic acid]
> 1000 nM | CCC(CC)Oc1ccc(-c2nn(C3CCCC3)c3cc(COc4ccc(C(C)CC(=O)O)cc4)ccc23)cc1 (stereo not drawn) [Compound 27, 3-(4-((1-cyclopentyl-3-(4-(pentan-3-yloxy)phenyl)-1H-indazol-6-yl)methoxy)phenyl)butanoic acid]
> 1000 nM | CC(CC(=O)O)c1ccc(OCc2ccc3c(-c4ccc(OC/C=C/C(=O)O)cc4)nn(C4CCCC4)c3c2)cc1 (stereo not drawn) [Compound 28, (E)-4-(4-(6-((4-(1-carboxypropan-2-yl)phenoxy)methyl)-1-cyclopentyl-1H-indazol-3-yl)phenoxy)but-2-enoic acid]
> 1000 nM | CCOc1ccc(-c2nn(C3CCCC3)c3cc(COc4ccc(C(C)CC(=O)O)cc4)ccc23)cc1 (stereo not drawn) [Compound 29, 3-(4-((1-cyclopentyl-3-(4-ethoxyphenyl)-1H-indazol-6-yl)methoxy)phenyl)butanoic acid]

Same assay, conditions: Table 3, IC50 class, calcium signal induced by 2.5 nM chemerin-9

IC50 | Compound
100 to 1000 nM | C=CCOc1ccc(-c2nn(C3CCCC3)c3cc(COc4ccc(C(C)CC(=O)O)cc4)ccc23)cc1 (stereo not drawn) [Compound 30, 3-(4-((3-(4-(allyloxy)phenyl)-1-cyclopentyl-1H-indazol-6-yl)methoxy)phenyl)butanoic acid]
> 1000 nM | CC(CC(=O)O)c1ccc(OCc2ccc3c(-c4ccc5c(c4)OCO5)nn(C4CCCC4)c3c2)cc1 (stereo not drawn) [Compound 31, 3-(4-((3-(Benzo[d][1,3]dioxol-5-yl)-1-cyclopentyl-1H-indazol-6-yl)methoxy)phenyl)butanoic acid]
> 1000 nM | CC(CC(=O)O)c1ccc(OCc2ccc3c(-c4nnn[nH]4)nn(C4CCCC4)c3c2)cc1 (stereo not drawn) [Compound 32, 3-(4-((1-cyclopentyl-3-(1H-tetrazol-5-yl)-1H-indazol-6-yl)methoxy)phenyl)butanoic acid]
> 1000 nM | CC(CC(=O)O)c1ccc(OCc2ccc3c(-c4cc(Cl)nc(Cl)c4)nn(C4CCCC4)c3c2)cc1 (stereo not drawn) [Compound 33, 3-(4-((1-cyclopentyl-3-(2,6-dichloropyridin-4-yl)-1H-indazol-6-yl)methoxy)phenyl)butanoic acid]
100 to 1000 nM | CC(CC(=O)O)c1ccc(OCc2ccc3c(-c4cc(F)c(/C=N/O)c(F)c4)nn(C4CCCC4)c3c2)cc1 (stereo not drawn) [Compound 34, (E)-3-(4-((1-cyclopentyl-3-(3,5-difluoro-4-((hydroxyimino)methyl)phenyl)-1H-indazol-6-yl)methoxy)phenyl)butanoic acid]
> 1000 nM | C[C@@H](CC(=O)O)c1ccc(OCc2ccc3c(-c4ccc(O)c([N+](=O)[O-])c4)nn(C4CCCC4)c3c2)cc1 [Compound 37, (S)-3-(4-((1-cyclopentyl-3-(4-hydroxy-3-nitrophenyl)-1H-indazol-6-yl)methoxy)phenyl)butanoic acid]
> 1000 nM | C[C@@H](CC(=O)O)c1ccc(OCc2ccc3c(-c4ccc(O)c(O)c4)nn(C4CCCC4)c3c2)cc1 [Compound 38]
100 to 1000 nM | C[C@@H](CC(=O)O)c1ccc(OCc2ccc3c(-c4ccc(O)cc4Cl)nn(C4CCCC4)c3c2)cc1 [Compound 42, (S)-3-(4-((3-(2-chloro-4-hydroxyphenyl)-1-cyclopentyl-1H-indazol-6-yl)methoxy)phenyl)butanoic acid]
100 to 1000 nM | C[C@@H](CC(=O)O)c1ccc(OCc2ccc3c(-c4cc(Cl)c(O)c(Cl)c4)nn(C4CCCC4)c3c2)cc1 [Compound 44, (S)-3-(4-((1-cyclopentyl-3-(3,5-dichloro-4-hydroxyphenyl)-1H-indazol-6-yl)methoxy)phenyl)butanoic acid]
100 to 1000 nM | C[C@@H](CC(=O)O)c1ccc(OCc2ccc3c(-c4cc(F)c(O)cc4F)nn(C4CCCC4)c3c2)cc1 [Compound 45, (S)-3-(4-((1-cyclopentyl-3-(2,5-difluoro-4-hydroxyphenyl)-1H-indazol-6-yl)methoxy)phenyl)butanoic acid]
100 to 1000 nM | C[C@@H](CC(=O)O)c1ccc(OCc2ccc3c(-c4cc(Cl)c(O)cc4Cl)nn(C4CCCC4)c3c2)cc1 [Compound 46, (S)-3-(4-((1-cyclopentyl-3-(2,5-dichloro-4-hydroxyphenyl)-1H-indazol-6-yl)methoxy)phenyl)butanoic acid]
< 100 nM | C[C@@H](CC(=O)O)c1ccc(OCc2ccc3c(-c4cc(F)c(CO)c(F)c4)nn(C4CCCC4)c3c2)cc1 [Compound 47, (S)-3-(4-((1-cyclopentyl-3-(3,5-difluoro-4-(hydroxymethyl)phenyl)-1H-indazol-6-yl)methoxy)phenyl)butanoic acid]
100 to 1000 nM | C[C@@H](CC(=O)O)c1ccc(OCc2ccc3c(-c4ccc(C(=O)O)cc4)nn(C4CCCC4)c3c2)cc1 [Compound 51, (S)-4-(6-((4-(1-carboxypropan-2-yl)phenoxy)methyl)-1-cyclopentyl-1H-indazol-3-yl)benzoic acid]

Same assay, conditions: read-out: CMKLR1 activity in CHO cells (% inhibition at 10 µM), 10 µM compound, relative to calcium signal induced by 2.5 nM chemerin-9

inhibition at 10 µM | Compound
10% | CC(C)n1nc(-c2ccccc2)c2ccc(COc3ccc(CC(C)(C)C(=O)O)cc3)cc21 [Compound 3, 3-(4-((1-isopropyl-3-phenyl-1H-indazol-6-yl)methoxy)phenyl)-2,2-dimethylpropanoic acid]
81% | CC(CC(=O)O)c1ccc(OCc2ccc3c(-c4ccccc4)nn(C(C)C)c3c2)cc1 (stereo not drawn) [Compound 7, 3-(4-((1-isopropyl-3-phenyl-1H-indazol-6-yl)methoxy)phenyl)butanoic acid]
25% | CC(C)C(CC(=O)O)c1ccc(OCc2ccc3c(-c4ccccc4)nn(C(C)C)c3c2)cc1 (stereo not drawn) [Compound 8, 3-(4-((1-isopropyl-3-phenyl-1H-indazol-6-yl)methoxy)phenyl)-4-methylpentanoic acid]
81% | CCC(CC(=O)O)c1ccc(OCc2ccc3c(-c4ccccc4)nn(C(C)C)c3c2)cc1 (stereo not drawn) [Compound 9, 3-(4-((1-isopropyl-3-phenyl-1H-indazol-6-yl)methoxy)phenyl)pentanoic acid]
